Consider six compounds from ChEMBL document CHEMBL1154267, “Imidazo[1,5-a][1,2,4]-triazolo[1,5-d][1,4]benzodiazepines as potent and highly selective GABAA alpha5 inverse agonists with potential for the treatment of cognitive dysfunction” (Bioorg Med Chem Lett, 2009).

The structures appear in SMILES notation. pKi: −log10 of the molar value. Active and inactive are the calls of the source. The calls are words filed in the database; no cut-off is given here.

In the first assay the target is T1, GABA-A receptor; alpha-5/beta-3/gamma-2 (Homo sapiens, UniProt P18507+P28472+P31644).
T1 sequence (P18507 whole entry): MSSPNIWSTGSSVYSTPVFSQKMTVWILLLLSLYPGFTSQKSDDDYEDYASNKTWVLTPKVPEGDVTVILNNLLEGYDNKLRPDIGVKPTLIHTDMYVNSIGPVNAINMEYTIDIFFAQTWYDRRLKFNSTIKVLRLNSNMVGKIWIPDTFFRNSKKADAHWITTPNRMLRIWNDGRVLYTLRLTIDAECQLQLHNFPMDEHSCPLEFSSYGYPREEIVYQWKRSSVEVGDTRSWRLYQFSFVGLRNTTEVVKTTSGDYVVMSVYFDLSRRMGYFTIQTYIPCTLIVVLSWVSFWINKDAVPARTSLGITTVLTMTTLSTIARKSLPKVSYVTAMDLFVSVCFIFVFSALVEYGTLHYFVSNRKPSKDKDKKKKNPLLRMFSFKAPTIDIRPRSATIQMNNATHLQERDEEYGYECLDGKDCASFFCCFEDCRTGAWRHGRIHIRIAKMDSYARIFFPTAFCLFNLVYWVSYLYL
T1 sequence (P28472 whole entry): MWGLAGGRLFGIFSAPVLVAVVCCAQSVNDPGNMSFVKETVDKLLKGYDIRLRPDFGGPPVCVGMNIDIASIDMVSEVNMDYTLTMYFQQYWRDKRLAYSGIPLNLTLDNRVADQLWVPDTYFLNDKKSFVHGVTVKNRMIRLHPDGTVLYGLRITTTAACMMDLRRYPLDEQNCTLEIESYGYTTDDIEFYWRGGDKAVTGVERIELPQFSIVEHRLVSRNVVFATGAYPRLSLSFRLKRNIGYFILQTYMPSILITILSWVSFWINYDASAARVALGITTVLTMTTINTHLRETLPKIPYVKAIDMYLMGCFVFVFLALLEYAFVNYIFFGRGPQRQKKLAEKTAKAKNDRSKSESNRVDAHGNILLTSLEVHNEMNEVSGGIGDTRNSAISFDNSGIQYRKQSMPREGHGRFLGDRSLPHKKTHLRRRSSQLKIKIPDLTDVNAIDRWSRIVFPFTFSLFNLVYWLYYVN
T1 sequence (P31644 whole entry): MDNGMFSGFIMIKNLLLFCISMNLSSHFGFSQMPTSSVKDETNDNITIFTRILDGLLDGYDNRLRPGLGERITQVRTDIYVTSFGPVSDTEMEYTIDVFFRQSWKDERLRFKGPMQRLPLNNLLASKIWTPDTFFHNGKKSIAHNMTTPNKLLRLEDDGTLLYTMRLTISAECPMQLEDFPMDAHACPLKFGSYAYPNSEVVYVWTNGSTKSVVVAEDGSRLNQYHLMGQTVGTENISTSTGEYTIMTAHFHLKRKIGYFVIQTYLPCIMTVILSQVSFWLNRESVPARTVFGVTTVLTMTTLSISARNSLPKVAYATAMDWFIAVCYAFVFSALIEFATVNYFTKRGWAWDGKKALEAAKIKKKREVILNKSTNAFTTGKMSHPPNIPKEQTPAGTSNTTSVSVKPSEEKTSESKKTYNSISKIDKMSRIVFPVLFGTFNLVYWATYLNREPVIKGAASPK
The assay can be described thus: Displacement of [3H]flumazenil from GABAA alpha-5-beta-3-gamma-2 receptor. The class given is protein-complex assay. Background: Displacement assays read how much labelled ligand stays bound in the presence of the test substance.
Broadly, the pKi is the negative decadic logarithm of the Ki, by convention in mol/L. A low value points to a high Ki. In turn, `Cc1cc(-c2nnc3c4ccccc4c(OCc4ccccn4)nn23)no1` gave a pKi of 8.82.

With `Cc1ncn2c1Cn1nc(C(C)(C)C)nc1-c1cc(Br)ccc1-2`, the pKi is 6.84. Against the preceding compound, the pKi is 1.98 log units lower.

`Cc1cc(Cc2nc3n(n2)Cc2c(C)ncn2-c2ccccc2-3)on1`: the negative-log Ki (pKi) is 8.80.

As to `COCc1nc2n(n1)Cc1c(C)ncn1-c1ccc(Br)cc1-2`, the pKi was 7.89.

As to `Cc1ncn2c1Cn1nc(CC3CC3)nc1-c1cc(Br)ccc1-2`, the pKi is 8.30.

The compound `Cc1cc(Cc2nc3n(n2)Cc2c(C)ncn2-c2ccc(O)cc2-3)on1` showed a pKi of 8.92. Compared with the last compound, the pKi is 0.62 log units higher.

The target in a further assay is T2, GABA-A receptor; alpha-1/beta-3/gamma-2 (Homo sapiens, UniProt P14867+P18507+P28472).
T2 sequence (P14867 whole entry): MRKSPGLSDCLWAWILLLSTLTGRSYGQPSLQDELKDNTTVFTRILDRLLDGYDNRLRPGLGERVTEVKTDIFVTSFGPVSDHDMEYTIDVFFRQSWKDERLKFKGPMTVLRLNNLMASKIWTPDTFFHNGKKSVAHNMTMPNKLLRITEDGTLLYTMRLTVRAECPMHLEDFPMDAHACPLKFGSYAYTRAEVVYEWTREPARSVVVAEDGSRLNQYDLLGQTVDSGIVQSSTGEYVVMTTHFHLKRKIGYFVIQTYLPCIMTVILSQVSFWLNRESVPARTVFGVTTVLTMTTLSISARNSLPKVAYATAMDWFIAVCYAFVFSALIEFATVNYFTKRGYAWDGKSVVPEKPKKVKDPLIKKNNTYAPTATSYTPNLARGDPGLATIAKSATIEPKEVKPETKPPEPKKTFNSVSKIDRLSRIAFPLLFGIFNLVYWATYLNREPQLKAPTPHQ
T2 sequence (P18507 whole entry): T1 sequence (P18507 whole entry)
T2 sequence (P28472 whole entry): T1 sequence (P28472 whole entry)
Briefly: Displacement of [3H]flumazenil from GABAA alpha-1-beta-3-gamma-2 receptor. The class given is protein-complex assay.
Compound `Cc1cc(-c2nnc3c4ccccc4c(OCc4ccccn4)nn23)no1` showed a negative-log Ki (pKi) of 8.82.

On to `Cc1ncn2c1Cn1nc(C(C)(C)C)nc1-c1cc(Br)ccc1-2`, for which the pKi was 5.50. This pKi lies 3.32 log units lower than the previous one.

The compound `COCc1nc2n(n1)Cc1c(C)ncn1-c1ccc(Br)cc1-2` had a pKi of 6.21.

Consider `Cc1ncn2c1Cn1nc(CC3CC3)nc1-c1cc(Br)ccc1-2`, for which the pKi was 6.27.

The target of another assay is T3, GABA-A receptor; alpha-2/beta-3/gamma-2 (Homo sapiens, UniProt P18507+P28472+P47869).
T3 sequence (P18507 whole entry): T1 sequence (P18507 whole entry)
T3 sequence (P28472 whole entry): T1 sequence (P28472 whole entry)
T3 sequence (P47869 whole entry): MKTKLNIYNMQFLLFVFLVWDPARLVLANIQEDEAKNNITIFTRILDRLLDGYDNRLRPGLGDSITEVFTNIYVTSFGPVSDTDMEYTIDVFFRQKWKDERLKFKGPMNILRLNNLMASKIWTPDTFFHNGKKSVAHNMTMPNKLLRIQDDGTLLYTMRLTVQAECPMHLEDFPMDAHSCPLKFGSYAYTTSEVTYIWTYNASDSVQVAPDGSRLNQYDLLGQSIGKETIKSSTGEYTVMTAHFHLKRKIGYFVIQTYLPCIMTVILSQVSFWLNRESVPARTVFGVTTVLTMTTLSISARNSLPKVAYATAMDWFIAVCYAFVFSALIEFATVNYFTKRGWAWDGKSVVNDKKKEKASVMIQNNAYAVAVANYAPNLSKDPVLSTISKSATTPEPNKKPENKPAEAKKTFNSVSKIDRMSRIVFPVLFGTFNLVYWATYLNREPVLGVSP
The assay can be described thus: Displacement of [3H]flumazenil from GABAA alpha-2-beta-3-gamma-2 receptor. The class given is protein-complex assay.
Compound `Cc1ncn2c1Cn1nc(C(C)(C)C)nc1-c1cc(Br)ccc1-2` showed a pKi of 5.97.

The compound `COCc1nc2n(n1)Cc1c(C)ncn1-c1ccc(Br)cc1-2` gave a pKi of 6.16.

On to `Cc1ncn2c1Cn1nc(CC3CC3)nc1-c1cc(Br)ccc1-2`, for which the pKi is 6.39.

For a further assay, the target named is T4, GABA-A receptor; alpha-3/beta-3/gamma-2 (Homo sapiens, UniProt P18507+P28472+P34903).
T4 sequence (P18507 whole entry): T1 sequence (P18507 whole entry)
T4 sequence (P28472 whole entry): T1 sequence (P28472 whole entry)
T4 sequence (P34903 whole entry): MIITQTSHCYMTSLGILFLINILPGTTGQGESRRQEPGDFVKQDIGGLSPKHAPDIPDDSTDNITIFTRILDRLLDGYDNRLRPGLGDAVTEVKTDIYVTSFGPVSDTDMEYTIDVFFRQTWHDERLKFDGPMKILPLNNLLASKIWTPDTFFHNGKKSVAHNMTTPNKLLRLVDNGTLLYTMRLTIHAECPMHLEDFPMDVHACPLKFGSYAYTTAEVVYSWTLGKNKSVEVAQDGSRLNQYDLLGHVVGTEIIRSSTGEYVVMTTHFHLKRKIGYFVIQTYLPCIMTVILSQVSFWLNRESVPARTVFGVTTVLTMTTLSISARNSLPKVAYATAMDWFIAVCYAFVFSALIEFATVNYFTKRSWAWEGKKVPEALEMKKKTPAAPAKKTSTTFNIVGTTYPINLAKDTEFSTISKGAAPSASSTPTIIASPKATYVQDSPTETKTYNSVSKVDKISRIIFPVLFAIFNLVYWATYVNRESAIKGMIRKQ
The assay can be described thus: Displacement of [3H]flumazenil from GABAA alpha-3-beta-3-gamma-2 receptor. In kind it is protein-complex assay.
Regarding `Cc1cc(-c2nnc3c4ccccc4c(OCc4ccccn4)nn23)no1`, the pKi is 8.82.

The compound `Cc1ncn2c1Cn1nc(C(C)(C)C)nc1-c1cc(Br)ccc1-2` gave a pKi of 5.92.

`COCc1nc2n(n1)Cc1c(C)ncn1-c1ccc(Br)cc1-2`: the pKi was 6.23. Against the preceding compound, the pKi is 0.31 log units higher.

On to `Cc1ncn2c1Cn1nc(CC3CC3)nc1-c1cc(Br)ccc1-2`, for which the pKi was 6.39.

A further assay deals with GABA-A receptor; alpha-5/beta-3/gamma-2 (Homo sapiens) (UniProt P18507+P28472+P31644). The assay can be described thus: Inverse agonist activity at GABAA alpha-5-beta-3-gamma-2 receptor assessed as modulation of GABA-induced chloride ion flux by electrophysiology assay relative to GABA. The class given is functional.
As for `Cc1cc(-c2nnc3c4ccccc4c(OCc4ccccn4)nn23)no1`, the Efficacy was -41%.

With `COCc1nc2n(n1)Cc1c(C)ncn1-c1ccc(Br)cc1-2`, the Efficacy is -3%.

Turning to `Cc1ncn2c1Cn1nc(CC3CC3)nc1-c1cc(Br)ccc1-2`, the Efficacy is -12%.

As for `Cc1cc(Cc2nc3n(n2)Cc2c(C)ncn2-c2ccc(O)cc2-3)on1`, the Efficacy is -7%.

The next assay concerns the target GABA-A receptor; alpha-1/beta-3/gamma-2 (Homo sapiens) (UniProt P14867+P18507+P28472). The assay can be described thus: Inverse agonist activity at GABAA alpha-1-beta-3-gamma-2 receptor assessed as modulation of GABA-induced chloride ion flux by electrophysiology assay relative to GABA. The class given is functional.
Regarding `Cc1cc(-c2nnc3c4ccccc4c(OCc4ccccn4)nn23)no1`, the Efficacy was -9%.

A further assay deals with GABA-A receptor; alpha-2/beta-3/gamma-2 (Homo sapiens) (UniProt P18507+P28472+P47869). The assay can be described thus: Inverse agonist activity at GABAA alpha-2-beta-3-gamma-2 receptor assessed as modulation of GABA-induced chloride ion flux by electrophysiology assay relative to GABA. The class given is functional.
With `Cc1cc(-c2nnc3c4ccccc4c(OCc4ccccn4)nn23)no1`, the Efficacy amounted to 11%.

A further assay addresses GABA-A receptor; alpha-3/beta-3/gamma-2 (Homo sapiens) (UniProt P18507+P28472+P34903). The assay can be described thus: Inverse agonist activity at GABAA alpha-3-beta-3-gamma-2 receptor assessed as modulation of GABA-induced chloride ion flux by electrophysiology assay relative to GABA. The class given is functional.
As to `Cc1cc(-c2nnc3c4ccccc4c(OCc4ccccn4)nn23)no1`, the Efficacy was 10%.

System in another assay: not listed separately
The assay can be described thus: Selectivity ratio of Ki for GABAA alpha-1-beta-3-gamma-2 receptor to Ki for GABAA alpha-5-beta-3-gamma-2 receptor.
On to `Cc1cc(Cc2nc3n(n2)Cc2c(C)ncn2-c2ccccc2-3)on1`, for which the Ratio Ki was 57.

As for `Cc1ncn2c1Cn1nc(CC3CC3)nc1-c1cc(Br)ccc1-2`, the Ratio Ki amounted to 2.

On to `Cc1cc(Cc2nc3n(n2)Cc2c(C)ncn2-c2ccc(O)cc2-3)on1`, for which the Ratio Ki came out at 99.

System in a further assay: not listed separately
The assay can be described thus: Selectivity ratio of Ki for GABAA alpha-2-beta-3-gamma-2 receptor to Ki for GABAA alpha-5-beta-3-gamma-2 receptor.
As to `Cc1cc(Cc2nc3n(n2)Cc2c(C)ncn2-c2ccccc2-3)on1`, the Ratio Ki amounted to 20.

For `Cc1ncn2c1Cn1nc(CC3CC3)nc1-c1cc(Br)ccc1-2`, the Ratio Ki amounted to 2.

System in the next assay: not listed separately
The assay can be described thus: Selectivity ratio of Ki for GABAA alpha-3-beta-3-gamma-2 receptor to Ki for GABAA alpha-5-beta-3-gamma-2 receptor.
With `Cc1cc(Cc2nc3n(n2)Cc2c(C)ncn2-c2ccccc2-3)on1`, the Ratio Ki stood at 16.

For `Cc1ncn2c1Cn1nc(CC3CC3)nc1-c1cc(Br)ccc1-2`, the Ratio Ki came out at 2.

A further assay concerns Rattus norvegicus. Briefly: Behavioral effect in Lister hooded rat assessed as reversal of Scopolamine-induced impairment of working memory at 1 mg/kg, ip administered 30 mins before Scopolamine challenge by delayed match to position test. The class given is functional, organism-based. Also on record: dose 1 mg/kg.
Regarding `Cc1cc(-c2nnc3c4ccccc4c(OCc4ccccn4)nn23)no1`, the outcome was Active.
